Measured values reported in patent US20260070917A1, “CYCLIN DEPENDENT KINASE DEGRADERS AND METHODS OF USE THEREOF” (Differentiated Therapeutics Inc, priority 2023, published 2026).
Where two headings read alike, the source gives them in different places.

What was measured:
Format in all cases: cell-based
CDK2 = biological target: T1, CDK2 (Homo sapiens, UniProt P24941); experiment: HiBit Assay Protocol for CDK2 (HIBIT protein quantification, degradation); conditions: HEK293-CDK2-Hibit cells, compound treatment for 6 hours; for DC50: ABS DC50
T1 construct: host or cells: HEK293-CDK2-Hibit
In short: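 HEK293 cells expressing HiBiT-tagged CDK2 were seeded overnight, then treated 6 h with a 3-fold, 10-point compound dilution series. CDK2 levels were read as luminescence after lytic HiBiT/LgBiT detection, normalised to DMSO-only and medium-only controls, and DC50 derived by curve fitting.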

CCNE1 = biological target: T2, CCNE1 (Homo sapiens, UniProt P24864); experiment: HiBit Assay Protocol for CCNE1 (HIBIT protein quantification, degradation); conditions: HEK293-CCNE1-Hibit cells, compound treatment for 6 hours
T2 construct: host or cells: HEK293-CCNE1-Hibit
T2 sequence (P24864 whole entry): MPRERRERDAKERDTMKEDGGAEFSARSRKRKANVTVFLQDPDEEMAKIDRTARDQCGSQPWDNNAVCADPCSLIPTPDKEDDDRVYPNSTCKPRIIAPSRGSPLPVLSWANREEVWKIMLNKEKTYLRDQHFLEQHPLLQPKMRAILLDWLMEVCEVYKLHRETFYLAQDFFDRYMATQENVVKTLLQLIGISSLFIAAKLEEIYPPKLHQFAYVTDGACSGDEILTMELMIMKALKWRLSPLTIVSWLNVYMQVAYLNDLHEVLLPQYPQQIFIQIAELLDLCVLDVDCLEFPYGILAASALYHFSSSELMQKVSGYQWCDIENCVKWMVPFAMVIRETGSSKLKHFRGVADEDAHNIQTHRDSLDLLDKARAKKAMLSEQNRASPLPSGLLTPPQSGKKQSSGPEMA
In short: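 HEK293 cells expressing HiBiT-tagged CCNE1 were seeded overnight, then treated 6 h with a 3-fold, 10-point compound dilution series. HiBiT levels were read by lytic LgBiT luminescence and normalised to DMSO-only (high) and medium-only (low) controls. DC50 was derived by curve fitting.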

CDK9 = biological target: T3, CDK9 (Homo sapiens, UniProt P50750); experiment: HiBit Assay Protocol for CDK9 (HIBIT protein quantification, degradation); conditions: HEK293-CDK9-Hibit cells, compound treatment for 6 hours, read-out: CDK9 HIBIT Protein Quantification Maximum
T3 construct: host or cells: HEK293-CDK9-Hibit
T3 sequence (P50750 whole entry): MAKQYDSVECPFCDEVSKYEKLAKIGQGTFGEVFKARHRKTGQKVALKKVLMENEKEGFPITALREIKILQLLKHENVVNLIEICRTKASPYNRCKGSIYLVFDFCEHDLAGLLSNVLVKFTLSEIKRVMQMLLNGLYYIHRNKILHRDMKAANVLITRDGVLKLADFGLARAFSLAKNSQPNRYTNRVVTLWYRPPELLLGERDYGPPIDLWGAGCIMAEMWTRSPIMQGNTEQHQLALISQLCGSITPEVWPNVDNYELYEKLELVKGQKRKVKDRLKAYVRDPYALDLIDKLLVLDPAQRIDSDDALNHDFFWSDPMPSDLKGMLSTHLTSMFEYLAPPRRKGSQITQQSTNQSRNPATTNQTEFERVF
In short: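 HEK293 cells carrying HiBiT-tagged CDK9 treated 6 h with compounds in a 3-fold, 10-point dilution series. CDK9 level read by lytic Nano-Glo HiBiT/LgBiT luminescence and normalized to 0.1% DMSO (high) and medium-only (low) controls. DC50 from curve fitting.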

CDK2 HIBIT Protein Quantification Maximum (CDK2) | DC50 (CDK2) | CCNE1 HIBIT Protein Quantification Maximum (CCNE1) | Dmax (CDK9; 6 h) | Compound | Dmax (CDK9)
65% | 3.23 nM | 50% | 11% | CC1CCCC1N1C(=O)C2(CC2)c2cnc(NC3CCN(S(=O)(=O)N4CC5(CCCN(C6CCN(c7cccc8c7n(C)c(=O)n8C7CCC(=O)NC7=O)CC6)C5)C4)CC3)nc21 (centres unmarked) [Compound 139] | 
71% | 2.09 nM | 20% | 8% | CC1CCCC1N1C(=O)C2(CC2)c2cnc(NC3CCN(S(=O)(=O)C4CCN(CC5CCN(c6ccc7c(c6)n(C)c(=O)n7C6CCC(=O)NC6=O)CC5)C4)CC3)nc21 (centres unmarked) [Compound 140, 3-(3-Methyl-5-{4-[(3-{4-[7′-(2-methylcyclopentyl)-6′-oxospiro[cyclopropane-1,5′-pyrrolo[2,3-d]pyrimidin]-2′-ylamino]piperidin-1-ylsulfonyl}pyrrolidin-1-yl)methyl]piperidin-1-yl}-2-oxo-1,3-benzodiazol-1-yl)piperidine-2,6-dione] | 
49% |  | 25% | 27% | CC1CCCC1N1C(=O)C2(CC2)c2cnc(NC3CCN(S(=O)(=O)N4CCC5(CCN(CCCCCCCOc6cccc7c6n(C)c(=O)n7C6CCC(=O)NC6=O)C5)C4)CC3)nc21 (centres unmarked) [Compound 141, 3-(3-Methyl-4-{[7-(7-{4-[7′-(2-methylcyclopentyl)-6′-oxospiro[cyclopropane-1,5′-pyrrolo[2,3-d]pyrimidin]-2′-ylamino]piperidin-1-ylsulfonyl}-2,7-diazaspiro[4.4]nonan-2-yl)heptyl]oxy}-2-oxo-1,3-benzodiazol-1-yl)piperidine-2,6-dione] | 
53% | 36.1 nM | 26% | 5% | CC1CCCC1N1C(=O)C2(CC2)c2cnc(NC3CCN(S(=O)(=O)N4CC5(CCCCN5CC5CCN(c6cccc7c6n(C)c(=O)n7C6CCC(=O)NC6=O)CC5)C4)CC3)nc21 (centres unmarked) [Compound 142] | 
11% |  | 1% | -2% | CC1CCCC1N1C(=O)C2(CC2)c2cnc(NC3CCN(S(=O)(=O)N4CC5(CN(CCCCOc6ccc7c(c6)n(C)c(=O)n7C6CCC(=O)NC6=O)C5)C4)CC3)nc21 (centres unmarked) [Compound 143] | 
75% | 1.97 nM | 39% | 49% | CC1CCCC1N1C(=O)C2(CC2)c2cnc(NC3CCN(S(=O)(=O)N4CC5(CN(CC6CCN(c7ccc8c(c7)n(C)c(=O)n8C7CCC(=O)NC7=O)CC6)C5)C4)CC3)nc21 (centres unmarked) [Compound 144] | 
79% | 4.08 nM | 25% | 14% | CC1CCCC1N1C(=O)C2(CC2)c2cnc(NC3CCN(S(=O)(=O)N4CCN(CC5CCN(c6cccc7c6n(C)c(=O)n7C6CCC(=O)NC6=O)CC5)CC4)CC3)nc21 (centres unmarked) [Compound 145] | 
78% | 6 nM | 44% | 2% | Cn1c(=O)n(C2CCC(=O)NC2=O)c2cccc(C3CCN(Cc4cccc(S(=O)(=O)N5CCC(Nc6ncc7c(n6)N([C@@H]6CCC[C@@H](O)C6)C(=O)C76CC6)CC5)c4)CC3)c21 (some centres unmarked) [Compound 148] | 
69% | 13.9 nM | 11% | 17% | Cn1c(=O)n(C2CCC(=O)NC2=O)c2ccc(-c3ccc(Oc4cccc(S(=O)(=O)N5CCC(Nc6ncc7c(n6)N([C@@H]6CCC[C@@H](O)C6)C(=O)C76CC6)CC5)c4)cc3)cc21 (stereo partly drawn) [Compound 149, 3-(5-{4-[3-(4-{7′-[(1R,3R)-3-Hydroxycyclohexyl]-6′-oxospiro[cyclopropane-1,5′-pyrrolo[2,3-d]pyrimidin]-2′-ylamino}piperidin-1-ylsulfonyl)phenoxy]phenyl}-3-methyl-2-oxo-1,3-benzodiazol-1-yl)piperidine-2,6-dione] | 
67% | 12.9 nM | 41% | 45% | Cn1c(=O)n(C2CCC(=O)NC2=O)c2cccc(-c3ccc(Oc4cccc(S(=O)(=O)N5CCC(Nc6ncc7c(n6)N([C@@H]6CCC[C@@H](O)C6)C(=O)C76CC6)CC5)c4)cc3)c21 (some centres unmarked) [Compound 150] | 
57% | 9.42 nM | 28% | 17% | C[C@@H]1CN(S(=O)(=O)c2cccc(CN3CCC(c4ccc5c(N6CCC(=O)NC6=O)nn(C)c5c4)CC3)c2)CC[C@@H]1Nc1ncc2c(n1)N([C@@H]1CCC[C@@H](O)C1)C(=O)C21CC1 [Compound 153, 1-{6-[1-({3-[(3R,4S)-4-{7′-[(1R,3R)-3-Hydroxycyclohexyl]-6′-oxospiro[cyclopropane-1,5′-pyrrolo[2,3-d]pyrimidin]-2′-ylamino}-3-methylpiperidin-1-ylsulfonyl]phenyl}methyl)piperidin-4-yl]-1-methylindazol-3-yl}-1,3-diazinane-2,4-dione] | 
64% | 7.87 nM | 31% | 15% | C[C@@H]1CN(S(=O)(=O)c2cccc(CN3CCC(c4ccc5c(N6CCC(=O)NC6=O)nn(C)c5c4)CC3)c2)CC[C@H]1Nc1ncc2c(n1)N([C@@H]1CCC[C@@H](O)C1)C(=O)C21CC1 [Compound 154] | 
19% |  | 14% | 8% | Cn1nc(N2CCC(=O)NC2=O)c2ccc(C3CCN(Cc4cccc(S(=O)(=O)N5CC[C@@H](Nc6ncc7c(n6)N([C@@H]6CCC[C@@H](O)C6)C(=O)C76CC6)[C@@H](F)C5)c4)CC3)cc21 [Compound 155, 1-{6-[1-({3-[(3S,4R)-3-Fluoro-4-{7′-[(1R,3R)-3-hydroxycyclohexyl]-6′-oxospiro[cyclopropane-1,5′-pyrrolo[2,3-d]pyrimidin]-2′-ylamino}piperidin-1-ylsulfonyl]phenyl}methyl)piperidin-4-yl]-1-methylindazol-3-yl}-1,3-diazinane-2,4-dione] | 
81% | 1.66 nM | 44% | 9% | Cn1nc(N2CCC(=O)NC2=O)c2ccc(C3CCN(Cc4cccc(S(=O)(=O)N5CC[C@H](Nc6ncc7c(n6)N([C@@H]6CCC[C@@H](O)C6)C(=O)C76CC6)[C@H](F)C5)c4)CC3)cc21 [Compound 156] | 
18% |  | 14% | 12% | Cn1nc(N2CCC(=O)NC2=O)c2ccc(C3CCN(Cc4cccc(S(=O)(=O)N5CC[C@H](Nc6ncc7c(n6)N([C@@H]6CCC[C@@H](O)C6)C(=O)C76CC6)[C@@H](F)C5)c4)CC3)cc21 [Compound 157] | 
75% | 25.2 nM | 34% | 38% | Cn1nc(N2CCC(=O)NC2=O)c2ccc(C3CCN(Cc4cc(S(=O)(=O)N5CCC(Nc6ncc7c(n6)N([C@@H]6CCC[C@@H](O)C6)C(=O)C76CC6)CC5)ccn4)CC3)cc21 [Compound 160, 1-[6-(1-{[4-(4-{7′-[(1R,3R)-3-Hydroxycyclohexyl]-6′-oxospiro[cyclopropane-1,5′-pyrrolo[2,3-d]pyrimidin]-2′-ylamino}piperidin-1-ylsulfonyl)pyridin-2-yl]methyl}piperidin-4-yl)-1-methylindazol-3-yl]-1,3-diazinane-2,4-dione] | 

Compound | CDK2 HIBIT Protein Quantification Maximum (CDK2) | DC50 (CDK2) | CCNE1 HIBIT Protein Quantification Maximum (CCNE1) | Dmax (CDK9; 6 h) | Dmax (CDK9)
Cn1c(=O)n(C2CCC(=O)NC2=O)c2ccc(C3CCN(Cc4cccc(S(=O)(=O)N5CCC(Nc6ncc7c(n6)N([C@@H]6CCC[C@@H](O)C6)C(=O)C76CC6)CC5)c4)CC3)cc21 (stereo partly drawn) [Compound 147, 3-[5-(1-{[3-(4-{7′-[(1R,3R)-3-Hydroxycyclohexyl]-6′-oxospiro[cyclopropane-1,5′-pyrrolo[2,3-d]pyrimidin]-2′-ylamino}piperidin-1-ylsulfonyl)phenyl]methyl}piperidin-4-yl)-3-methyl-2-oxo-1,3-benzodiazol-1-yl]piperidine-2,6-dione] | 64% | 11 nM | 13% |  | 2%
Cn1nc(N2CCC(=O)NC2=O)c2ccc(C3CCN(Cc4cccc(S(=O)(=O)N5CCC(Nc6ncc7c(n6)N(c6cc(F)ccc6Cl)C(=O)C76CC6)CC5)c4)CC3)cc21 [Compound 162, 1-(6-{1-[(3-{4-[7′-(2-Chloro-5-fluorophenyl)-6′-oxospiro[cyclopropane-1,5′-pyrrolo[2,3-d]pyrimidin]-2′-ylamino]piperidin-1-ylsulfonyl}phenyl)methyl]piperidin-4-yl}-1-methylindazol-3-yl)-1,3-diazinane-2,4-dione] | 75% | 8.03 nM | 42% |  | 4%
